In ChEMBL document CHEMBL1201862, “PubChem BioAssay data set” (2004):
Active and inactive are the calls of the source.

Key:
Cytochrome P450 2C19 = Cytochrome P450 2C19 (Homo sapiens, UniProt P33261); test: Cytochrome panel assay with activity outcomes. Panel member name: p450-cyp2c19 Compounds with AC50 equal or less than 10 uM are considered active; assay type: functional; settings: read-out: AC50
Cytochrome P450 3A4 = Cytochrome P450 3A4 (Homo sapiens, UniProt P08684);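 also: CYP3A4 tested as one member of a cytochrome P450 panel screen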
Chain of Cytochrome P450 3A4 (P08684 whole entry): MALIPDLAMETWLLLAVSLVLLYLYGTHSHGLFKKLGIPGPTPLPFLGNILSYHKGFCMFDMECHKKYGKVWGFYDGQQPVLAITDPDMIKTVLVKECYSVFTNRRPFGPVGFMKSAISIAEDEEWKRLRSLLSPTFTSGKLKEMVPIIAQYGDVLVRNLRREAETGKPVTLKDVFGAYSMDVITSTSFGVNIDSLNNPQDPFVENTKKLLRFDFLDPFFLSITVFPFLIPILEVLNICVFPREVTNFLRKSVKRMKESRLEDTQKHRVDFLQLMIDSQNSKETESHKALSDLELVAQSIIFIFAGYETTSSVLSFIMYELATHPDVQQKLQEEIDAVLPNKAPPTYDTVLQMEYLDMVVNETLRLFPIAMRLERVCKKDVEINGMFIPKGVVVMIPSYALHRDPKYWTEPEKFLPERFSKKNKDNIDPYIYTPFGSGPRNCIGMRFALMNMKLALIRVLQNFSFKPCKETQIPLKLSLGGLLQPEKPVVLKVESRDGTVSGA

Cytochrome P450 2C9 = Cytochrome P450 2C9 (Homo sapiens, UniProt P11712)
Chain of Cytochrome P450 2C9 (P11712 whole entry): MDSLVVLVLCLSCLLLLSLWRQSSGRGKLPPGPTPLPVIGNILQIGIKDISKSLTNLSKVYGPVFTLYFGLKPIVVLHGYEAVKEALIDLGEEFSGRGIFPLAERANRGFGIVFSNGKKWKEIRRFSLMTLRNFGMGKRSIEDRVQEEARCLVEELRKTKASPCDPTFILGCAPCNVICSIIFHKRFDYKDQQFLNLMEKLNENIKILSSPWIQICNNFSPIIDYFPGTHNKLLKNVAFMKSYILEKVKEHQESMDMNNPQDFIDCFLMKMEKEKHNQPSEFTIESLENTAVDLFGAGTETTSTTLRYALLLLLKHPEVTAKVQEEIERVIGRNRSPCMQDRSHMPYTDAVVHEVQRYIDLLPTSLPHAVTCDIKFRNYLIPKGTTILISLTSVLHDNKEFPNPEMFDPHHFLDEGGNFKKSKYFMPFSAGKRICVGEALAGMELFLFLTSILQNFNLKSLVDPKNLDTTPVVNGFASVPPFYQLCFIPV

Escherichia coli [1] = test: microbe, parasite or virus in culture
Aurora kinase A = molecular target: T1, Aurora kinase A (Homo sapiens, UniProt O14965); assay type: functional;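 also: value from the Navigating the Kinome kinase panel profiling, panel entry STK6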
T1 sequence (O14965 whole entry): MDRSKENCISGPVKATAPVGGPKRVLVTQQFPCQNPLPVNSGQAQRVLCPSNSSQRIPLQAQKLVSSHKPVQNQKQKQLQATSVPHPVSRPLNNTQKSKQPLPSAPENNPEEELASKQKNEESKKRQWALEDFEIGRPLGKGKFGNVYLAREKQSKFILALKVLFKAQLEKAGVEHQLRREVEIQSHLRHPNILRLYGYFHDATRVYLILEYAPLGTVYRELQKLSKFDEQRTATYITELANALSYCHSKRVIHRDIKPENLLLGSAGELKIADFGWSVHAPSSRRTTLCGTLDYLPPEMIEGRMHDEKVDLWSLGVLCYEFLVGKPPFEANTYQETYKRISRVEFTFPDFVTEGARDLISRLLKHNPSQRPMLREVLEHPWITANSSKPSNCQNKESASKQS

Aurora kinase B = Aurora kinase B (Homo sapiens, UniProt Q96GD4); assay type: functional
Chain of Aurora kinase B (Q96GD4 whole entry): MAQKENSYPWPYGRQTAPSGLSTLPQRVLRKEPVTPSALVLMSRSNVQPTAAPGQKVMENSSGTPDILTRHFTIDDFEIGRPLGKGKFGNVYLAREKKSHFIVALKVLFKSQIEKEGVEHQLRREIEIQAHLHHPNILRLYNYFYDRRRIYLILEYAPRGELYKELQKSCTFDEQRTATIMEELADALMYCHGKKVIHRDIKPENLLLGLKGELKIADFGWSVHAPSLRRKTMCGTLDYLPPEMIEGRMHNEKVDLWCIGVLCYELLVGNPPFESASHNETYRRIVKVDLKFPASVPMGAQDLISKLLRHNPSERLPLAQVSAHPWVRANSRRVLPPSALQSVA

[2] = molecular target: Inhibitor of nuclear factor kappa-B kinase subunit epsilon (Homo sapiens, UniProt Q14164); test: Navigating the Kinome. Panel member name: IKBKE; assay type: functional
Chain of Inhibitor of nuclear factor kappa-B kinase subunit epsilon (Q14164 whole entry): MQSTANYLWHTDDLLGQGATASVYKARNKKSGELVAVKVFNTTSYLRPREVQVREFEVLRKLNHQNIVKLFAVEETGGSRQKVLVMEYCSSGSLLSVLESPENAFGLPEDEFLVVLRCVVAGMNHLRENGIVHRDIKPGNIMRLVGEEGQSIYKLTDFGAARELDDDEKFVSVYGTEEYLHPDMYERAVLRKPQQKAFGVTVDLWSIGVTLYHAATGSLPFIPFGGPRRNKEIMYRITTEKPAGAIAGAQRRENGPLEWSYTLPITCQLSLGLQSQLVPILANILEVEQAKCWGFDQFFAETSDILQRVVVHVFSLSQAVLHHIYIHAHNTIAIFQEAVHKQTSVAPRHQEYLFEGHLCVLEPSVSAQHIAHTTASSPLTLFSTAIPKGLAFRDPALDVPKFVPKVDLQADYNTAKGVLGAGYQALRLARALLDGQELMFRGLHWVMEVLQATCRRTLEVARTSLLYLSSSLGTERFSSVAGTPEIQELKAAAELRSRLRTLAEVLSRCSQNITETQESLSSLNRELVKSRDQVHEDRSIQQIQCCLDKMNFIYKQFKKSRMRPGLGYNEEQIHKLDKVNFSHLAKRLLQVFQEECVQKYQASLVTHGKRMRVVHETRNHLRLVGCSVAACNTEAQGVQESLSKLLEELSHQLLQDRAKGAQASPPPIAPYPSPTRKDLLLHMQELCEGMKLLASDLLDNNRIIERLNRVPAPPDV

Vero = Vero cell cytotoxicity, cytotoxicity control for flavivirus capping enzyme inhibitors (AID 588742); assay type: functional; settings: Chlorocebus sabaeus
Genome polyprotein = Genome polyprotein (dengue virus type 2, UniProt P29990); test: Dengue-2 NS5 methyltransferase inhibitors, primary screen, biochemical, confirmation dose response (AID 588689); assay type: functional
Chain of Genome polyprotein (P29990 2492-3391 limits assumed): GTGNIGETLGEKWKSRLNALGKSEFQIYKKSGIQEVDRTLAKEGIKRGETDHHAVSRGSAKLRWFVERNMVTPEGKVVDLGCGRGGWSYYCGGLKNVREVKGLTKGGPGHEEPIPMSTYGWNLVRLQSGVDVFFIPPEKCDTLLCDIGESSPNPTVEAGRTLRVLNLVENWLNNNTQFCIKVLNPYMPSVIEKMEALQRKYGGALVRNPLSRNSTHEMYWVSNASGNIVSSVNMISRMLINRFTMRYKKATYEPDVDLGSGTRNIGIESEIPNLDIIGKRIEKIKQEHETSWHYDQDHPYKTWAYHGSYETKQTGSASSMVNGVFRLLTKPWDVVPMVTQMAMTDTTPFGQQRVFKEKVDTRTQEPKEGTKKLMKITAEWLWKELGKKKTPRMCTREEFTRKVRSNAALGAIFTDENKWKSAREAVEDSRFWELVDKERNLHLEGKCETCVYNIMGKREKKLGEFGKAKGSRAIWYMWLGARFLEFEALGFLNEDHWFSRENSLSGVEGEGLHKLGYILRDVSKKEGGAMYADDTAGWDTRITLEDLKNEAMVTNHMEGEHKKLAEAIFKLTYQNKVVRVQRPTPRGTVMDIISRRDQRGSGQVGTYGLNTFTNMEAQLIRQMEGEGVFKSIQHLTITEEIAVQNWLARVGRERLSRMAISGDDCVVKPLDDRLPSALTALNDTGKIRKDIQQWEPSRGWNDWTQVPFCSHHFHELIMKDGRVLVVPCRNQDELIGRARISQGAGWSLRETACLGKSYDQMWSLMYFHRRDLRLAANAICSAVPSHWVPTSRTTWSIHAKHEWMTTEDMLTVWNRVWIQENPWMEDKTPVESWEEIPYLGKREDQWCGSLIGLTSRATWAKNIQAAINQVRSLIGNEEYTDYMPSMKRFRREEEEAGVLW

[3] = THP-1 cell cytotoxicity, dose response, cytotoxicity control for Vif-APOBEC3G degradation inhibitor project, THP-1 cells (AID 1117359); assay type: functional; settings: Human immunodeficiency virus 1, THP-1
HEK293 [4] = test: cells; settings: Homo sapiens
HEK293 [5] = test: cells; settings: Homo sapiens; remark: listed apart in the source
Activin receptor type-1 = Activin receptor type-1 (Homo sapiens, UniProt Q04771); test: Navigating the Kinome. Panel member name: ACVR1; assay type: functional
Chain of Activin receptor type-1 (Q04771 whole entry): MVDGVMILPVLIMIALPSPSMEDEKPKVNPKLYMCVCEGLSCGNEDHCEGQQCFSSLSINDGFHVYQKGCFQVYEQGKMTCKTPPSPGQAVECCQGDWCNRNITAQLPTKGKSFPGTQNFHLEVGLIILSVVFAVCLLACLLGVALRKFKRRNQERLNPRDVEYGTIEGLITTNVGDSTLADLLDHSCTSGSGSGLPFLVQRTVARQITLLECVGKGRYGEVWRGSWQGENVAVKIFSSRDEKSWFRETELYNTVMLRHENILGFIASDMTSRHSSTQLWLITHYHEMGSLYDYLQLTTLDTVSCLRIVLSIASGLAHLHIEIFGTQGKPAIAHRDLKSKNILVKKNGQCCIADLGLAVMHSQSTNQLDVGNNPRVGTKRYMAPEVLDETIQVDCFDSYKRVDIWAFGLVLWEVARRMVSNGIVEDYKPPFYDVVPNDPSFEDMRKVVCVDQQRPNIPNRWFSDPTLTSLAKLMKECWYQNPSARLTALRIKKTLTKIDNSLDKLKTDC

[6] = molecular target: Cyclin-dependent kinase 8 (Homo sapiens, UniProt P49336); test: Navigating the Kinome. Panel member name: CDK8; assay type: functional
Estrogen receptor = molecular target: T2, Estrogen receptor (Homo sapiens, UniProt P03372);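 also: potency for inhibiting coactivator peptide recruitment to the receptor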
T2 sequence (P03372 whole entry): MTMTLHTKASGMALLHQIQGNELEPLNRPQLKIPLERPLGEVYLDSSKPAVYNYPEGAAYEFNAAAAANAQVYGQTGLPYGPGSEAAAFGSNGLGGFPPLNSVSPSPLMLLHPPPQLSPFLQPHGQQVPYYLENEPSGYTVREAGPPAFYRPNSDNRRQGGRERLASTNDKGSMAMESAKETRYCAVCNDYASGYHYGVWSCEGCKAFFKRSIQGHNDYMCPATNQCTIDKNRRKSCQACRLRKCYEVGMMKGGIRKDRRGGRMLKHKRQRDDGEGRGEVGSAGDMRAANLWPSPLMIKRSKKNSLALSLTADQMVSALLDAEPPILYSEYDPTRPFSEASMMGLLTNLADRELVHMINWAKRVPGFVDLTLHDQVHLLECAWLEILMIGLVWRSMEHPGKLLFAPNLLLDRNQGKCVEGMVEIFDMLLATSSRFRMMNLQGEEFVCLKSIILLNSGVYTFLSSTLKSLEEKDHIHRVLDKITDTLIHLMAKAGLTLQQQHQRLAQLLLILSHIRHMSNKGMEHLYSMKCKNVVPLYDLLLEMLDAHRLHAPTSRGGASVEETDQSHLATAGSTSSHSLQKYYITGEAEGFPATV

Escherichia coli [7] = test: microbe, parasite or virus in culture; remark: listed apart in the source
[8] = NIH-3T3 fibroblast cytotoxicity, dose response, cytotoxicity control, cell-based, fluorescence, Alamar Blue, secondary assay (AID 2327); assay type: functional;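 also: NIH-3T3 mouse fibroblasts cultured with fluconazole at 8 µg/mL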
[9] = C. albicans growth with fluconazole, confirmation, fluorescence, retest (AID 2467); assay type: functional, cell-based
[10] = inhibitors of intracellular T. cruzi replication, confirmation, NIH3T3 host cells, beta-gal luminescence (AID 2044); assay type: functional, cell-based;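 also: intracellular parasites grown in NIH/3T3 mouse fibroblasts as host cells; luminescent beta-galactosidase reporter signal from transgenic T. cruzi replicating inside host cells; inhibitors lower the luminescence signal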
[11] = molecular target: T3, Serine/threonine-protein phosphatase (Candida dubliniensis (strain CD36 / CBS 7987 / NCPF 3949 / NRRLY-17841) (Yeast), UniProt B9W6M3); test: calcineurin pathway inhibitors in yeast reporter, dose response, S. cerevisiae, CDRE-lacZ, luminescence, secondary (AID 2388); assay type: functional, cell-based;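 also: yeast reporter cells carrying a calcineurin-responsive lacZ construct stimulated with calcium chloride; luminescent beta-galactosidase reporter signal in whole cells rather than isolated phosphatase activity; potency for inhibition where a drop in reporter signal means calcineurin blockade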
T3 sequence (B9W6M3 whole entry): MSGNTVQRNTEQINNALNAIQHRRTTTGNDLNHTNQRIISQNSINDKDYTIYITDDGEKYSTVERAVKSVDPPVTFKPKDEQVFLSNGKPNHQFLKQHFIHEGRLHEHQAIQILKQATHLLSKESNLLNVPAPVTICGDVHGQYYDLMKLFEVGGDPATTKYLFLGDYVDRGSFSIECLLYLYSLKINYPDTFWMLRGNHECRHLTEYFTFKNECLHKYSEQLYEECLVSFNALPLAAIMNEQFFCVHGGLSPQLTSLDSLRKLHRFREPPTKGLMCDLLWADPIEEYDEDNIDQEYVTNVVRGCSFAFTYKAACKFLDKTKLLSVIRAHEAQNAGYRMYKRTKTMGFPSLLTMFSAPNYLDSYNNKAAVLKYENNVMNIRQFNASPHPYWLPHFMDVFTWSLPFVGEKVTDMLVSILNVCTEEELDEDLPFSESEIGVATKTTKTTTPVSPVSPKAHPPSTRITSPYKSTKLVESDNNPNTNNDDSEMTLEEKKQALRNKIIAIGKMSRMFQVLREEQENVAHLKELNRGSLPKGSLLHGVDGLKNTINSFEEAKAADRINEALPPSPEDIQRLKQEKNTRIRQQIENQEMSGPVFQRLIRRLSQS

[12] = cytotoxicity toward NIH3T3 fibroblasts, dose response, counter-screen, cell-based, ATP luminescence, mouse fibroblasts (AID 2010); assay type: functional;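 also: cells exposed to compound for about 90 hours before reading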
[13] = molecular target: T4, Microphthalmia-associated transcription factor (Homo sapiens, UniProt O75030); test: TRPM1 promoter luciferase signal decrease, dose response, MITF inhibitor project, cell-based, SK-MEL-5, cherry-picked, set 3 (AID 493073); assay type: functional
T4 sequence (O75030 whole entry): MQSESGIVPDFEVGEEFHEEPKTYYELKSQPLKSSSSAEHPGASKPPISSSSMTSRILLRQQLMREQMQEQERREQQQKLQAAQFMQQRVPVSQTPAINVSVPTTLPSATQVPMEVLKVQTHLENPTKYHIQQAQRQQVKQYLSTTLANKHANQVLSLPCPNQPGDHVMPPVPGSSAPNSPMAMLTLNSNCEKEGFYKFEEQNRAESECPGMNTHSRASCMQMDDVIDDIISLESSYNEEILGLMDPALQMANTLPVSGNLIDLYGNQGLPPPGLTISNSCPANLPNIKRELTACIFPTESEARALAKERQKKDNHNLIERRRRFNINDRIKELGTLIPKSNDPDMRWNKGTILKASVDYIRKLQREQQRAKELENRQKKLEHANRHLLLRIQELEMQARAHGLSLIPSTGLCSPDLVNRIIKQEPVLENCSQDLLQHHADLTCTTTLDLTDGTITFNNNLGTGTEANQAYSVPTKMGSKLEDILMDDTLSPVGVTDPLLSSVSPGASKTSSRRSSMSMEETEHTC

INS1 = test: beta cell apoptosis inhibitors, cytokine rescue, dose response, luminescence, retest (AID 449756); assay type: functional, cell-based; settings: Rattus norvegicus;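 also: cell death triggered by IL-1 beta plus TNF-alpha plus IFN-gamma mixture; protective hits raise ATP signal compared with cytokine alone wells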
[14] = molecular target: ATP-dependent molecular chaperone HSP82 (Candida albicans (strain WO-1) (Yeast), UniProt C4YTQ8); test: loss of DOC-induced GRE-beta-galactosidase reporter signal, dose response, Hsp90 inhibitor project, S. cerevisiae, luminescence (AID 2400); assay type: functional, cell-based;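 also: beta-galactosidase luminescence from glucocorticoid response element reporter as proxy for Hsp90 function; inhibitor potency where signal loss means Hsp90 inhibition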
A-375 = test: A375 melanoma cell viability reduction, dose response, counter-screen for MITF modulator project, cherry-pick samples, set 2 (AID 540335); assay type: functional, cell-based; settings: Homo sapiens
[15] = molecular target: SWI/SNF-related matrix-associated actin-dependent regulator of chromatin subfamily A member 2 (Homo sapiens, UniProt P51531); test: Luminescence-based cell-based high throughput dose response assay to identify activators of the function of SWI/SNF related, matrix associated, actin dependent regulator of chromatin, subfamily a, member 2 (SMARCA2, BRM).; assay type: functional
Chain of SWI/SNF-related matrix-associated actin-dependent regulator of chromatin subfamily A member 2 (P51531 whole entry): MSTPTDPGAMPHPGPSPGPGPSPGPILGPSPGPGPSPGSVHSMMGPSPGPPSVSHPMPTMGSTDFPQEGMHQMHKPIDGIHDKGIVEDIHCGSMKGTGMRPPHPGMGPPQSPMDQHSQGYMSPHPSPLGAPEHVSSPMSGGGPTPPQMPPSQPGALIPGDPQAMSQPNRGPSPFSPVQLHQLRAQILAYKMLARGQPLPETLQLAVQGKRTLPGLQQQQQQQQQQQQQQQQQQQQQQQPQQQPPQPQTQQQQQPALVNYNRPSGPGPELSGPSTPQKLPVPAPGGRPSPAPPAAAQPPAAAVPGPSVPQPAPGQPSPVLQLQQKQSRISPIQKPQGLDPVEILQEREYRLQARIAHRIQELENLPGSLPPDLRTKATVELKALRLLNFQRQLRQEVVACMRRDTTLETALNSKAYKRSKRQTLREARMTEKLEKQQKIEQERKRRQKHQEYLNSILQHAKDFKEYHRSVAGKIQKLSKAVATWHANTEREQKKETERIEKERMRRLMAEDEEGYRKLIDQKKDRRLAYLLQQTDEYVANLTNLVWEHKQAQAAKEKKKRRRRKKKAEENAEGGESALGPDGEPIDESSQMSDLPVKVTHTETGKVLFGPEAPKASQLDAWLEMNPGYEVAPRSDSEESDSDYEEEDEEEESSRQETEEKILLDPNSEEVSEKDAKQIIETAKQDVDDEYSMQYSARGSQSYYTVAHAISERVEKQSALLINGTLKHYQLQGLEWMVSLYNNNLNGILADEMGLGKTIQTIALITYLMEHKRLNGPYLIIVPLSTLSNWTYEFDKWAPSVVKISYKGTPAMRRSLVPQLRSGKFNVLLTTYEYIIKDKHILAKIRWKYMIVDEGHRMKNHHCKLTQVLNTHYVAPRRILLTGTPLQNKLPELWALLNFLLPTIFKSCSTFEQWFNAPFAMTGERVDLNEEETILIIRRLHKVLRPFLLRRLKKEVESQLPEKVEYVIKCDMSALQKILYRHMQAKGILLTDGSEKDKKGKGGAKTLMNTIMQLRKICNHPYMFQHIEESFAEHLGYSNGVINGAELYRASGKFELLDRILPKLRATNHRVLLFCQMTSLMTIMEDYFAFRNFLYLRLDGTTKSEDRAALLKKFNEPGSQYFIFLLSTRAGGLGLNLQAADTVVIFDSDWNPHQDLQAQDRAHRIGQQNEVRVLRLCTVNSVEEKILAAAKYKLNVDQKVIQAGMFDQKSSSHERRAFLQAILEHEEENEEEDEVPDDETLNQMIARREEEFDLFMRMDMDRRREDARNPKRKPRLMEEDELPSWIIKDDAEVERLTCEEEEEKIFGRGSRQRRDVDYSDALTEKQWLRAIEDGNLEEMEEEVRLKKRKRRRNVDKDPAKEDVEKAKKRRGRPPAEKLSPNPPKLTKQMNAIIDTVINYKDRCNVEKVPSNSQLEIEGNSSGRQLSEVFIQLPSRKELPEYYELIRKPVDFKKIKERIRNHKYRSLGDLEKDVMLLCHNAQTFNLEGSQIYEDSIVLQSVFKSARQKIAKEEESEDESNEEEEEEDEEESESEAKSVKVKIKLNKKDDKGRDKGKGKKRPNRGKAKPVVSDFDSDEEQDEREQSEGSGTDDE

[16] = Counterscreen for activators of the function of SWI/SNF related, matrix associated, actin dependent regulator of chromatin, subfamily a, member 2 (SMARCA2, BRM): Luminescence-based cell-based high throughput dose response assay to identify non-selective compounds using the VP16 reporter assay.; assay type: functional
[17] = molecular target: T5, DNA repair protein RAD52 homolog (Homo sapiens, UniProt P43351); assay type: functional, biochemical
T5 sequence (P43351 whole entry): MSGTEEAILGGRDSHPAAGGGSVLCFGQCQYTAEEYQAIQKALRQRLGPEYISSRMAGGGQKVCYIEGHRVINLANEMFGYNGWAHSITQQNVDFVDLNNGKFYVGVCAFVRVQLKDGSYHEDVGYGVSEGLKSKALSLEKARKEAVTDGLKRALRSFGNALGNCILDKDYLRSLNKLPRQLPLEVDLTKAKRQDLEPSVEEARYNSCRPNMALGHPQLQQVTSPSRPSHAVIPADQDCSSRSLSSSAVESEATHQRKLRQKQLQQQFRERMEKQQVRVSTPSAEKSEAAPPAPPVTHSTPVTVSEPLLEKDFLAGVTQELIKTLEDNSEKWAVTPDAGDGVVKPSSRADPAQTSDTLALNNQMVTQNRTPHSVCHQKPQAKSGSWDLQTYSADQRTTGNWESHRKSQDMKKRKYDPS

[18] = molecular target: Cyclin-dependent kinase 19 (Homo sapiens, UniProt Q9BWU1); test: Navigating the Kinome. Panel member name: CDC2L6; assay type: functional
[19] = molecular target: Dual specificity protein kinase CLK4 (Homo sapiens, UniProt Q9HAZ1); assay type: functional

With `CCN(CC)S(=O)(=O)N1CCC(C(=O)NC2CCCC2)CC1` the AC50 (Cytochrome P450 2C19) was 39.8 µM (inconclusive), the AC50 (Cytochrome P450 3A4) was 15.8 µM (inconclusive) and the AC50 (Cytochrome P450 2C9) was 3.16 µM (inconclusive). The AC50 (Escherichia coli [1]) was 26.2 µM (active).
In the case of `Cc1cccc(NC(=O)Nc2ccc(-c3nn(C)c4ncnc(N)c34)cc2)c1`, the Ki (Aurora kinase A) is reported as 0.0398 µM (active), the Ki (Aurora kinase B) is reported as 0.00158 µM (active) and the Ki [2] is reported as 0.501 µM (active).
With `Cn1cccc1/C=C1\C(=O)NC(=O)N(Cc2ccccc2)C1=O` the CC50 (Vero) was > 40 µM (active), the IC50 (Genome polyprotein) was 23.4 µM (active) and the CC50 [3] was > 40 µM (active). The EC50 (HEK293 [4]) was > 59.6 µM (inactive) and the EC50 (HEK293 [5]) was > 59.6 µM (inactive).
In the case of `Cc1nn(C)c(=O)c(N)c1-c1ccccc1`, the Ki (Activin receptor type-1) is reported as 50.1 µM (active) and the Ki [6] is reported as 31.6 µM (active).
For `Cc1occc1C(=O)NCc1cccc(CNC(=O)c2ccoc2C)c1`, the IC50 (Estrogen receptor) was 19.7 µM (active) and the AC50 (Escherichia coli [7]) was 21.6 µM (active).
With `CC(=O)Nc1ccc(Nc2c3ccccc3nc3ccccc23)cc1` the EC50 [8] was 10.5 µM (active), the EC50 [9] was 1.32 µM (active) and the EC50 [10] was 0.556 µM (active). The EC50 [11] was > 180 µM (inactive), the EC50 [12] was 0.536 µM (active) and the AC50 [13] was 4.9 µM (active). For the same molecule, the AC50 (INS1) was 3.71 µM (active), the EC50 [14] was > 150 µM (inactive) and the AC50 (A-375) was 13.8 µM (active). The EC50 [15] was > 91.1 µM (inactive), the EC50 [16] was > 91.1 µM (inactive) and the AC50 [17] was 2.21 µM (active).
For `O=c1cc(Cc2nc3ccccc3[nH]2)[nH]n1-c1ccccc1`, the Ki [18] was > 100 µM (inactive) and the Ki [19] was 1.26 µM (active).
